From US9624228B2, “Inhibitors of ERK and methods of use” (KURA ONCOLOGY, INC., priority 2013, dated 2017) come the findings set out here.

A word on the IC50: it is the concentration that gives 50% inhibition. A higher IC50 goes with lower potency.

SMILES strings stand for the structures.

ERK2 enzyme, sequence (P28482 whole entry): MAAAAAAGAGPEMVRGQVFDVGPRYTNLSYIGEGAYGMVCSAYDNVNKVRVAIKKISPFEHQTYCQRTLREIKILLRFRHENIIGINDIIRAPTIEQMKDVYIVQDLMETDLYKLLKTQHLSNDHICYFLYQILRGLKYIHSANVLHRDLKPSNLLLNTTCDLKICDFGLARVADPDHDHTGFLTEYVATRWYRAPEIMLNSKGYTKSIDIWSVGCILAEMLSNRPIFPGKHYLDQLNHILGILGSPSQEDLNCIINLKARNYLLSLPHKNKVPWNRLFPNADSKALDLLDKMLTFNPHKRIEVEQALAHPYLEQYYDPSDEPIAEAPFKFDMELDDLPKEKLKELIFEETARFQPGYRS

In the experiment the target is ERK2 enzyme (Homo sapiens (Human), UniProt P28482). As to the kind of experiment: Inhibition assay of ERK (Z'-LYTE kinase assay, Ser/Thr 3 peptide substrate). In kind it is biochemical. To be noted: In vitro ERK2 enzyme, 100 μM ATP. How it is done:
The inhibition of ERK activity by the compounds disclosed herein was determined using the Z′-LYTE kinase assay kit (Life Technologies) with a Ser/Thr 3 peptide substrate (Life Technologies) according to manufacturers' instructions. […] The IC50 values for the compounds were determined with 3-fold serial dilutions in duplicate. […] The final DMSO concentration in the assay was 1%. Final reaction volume was 20 μL/well in 384-well plates. Kinase reactions were conducted or 1 hour followed by the assay development reaction (1 hour) in a 20 ul/well in a 384 well plate format.
On to `Cc1cccc(-c2n[nH]c3cc4c(cc23)CN(Cc2cccc(Cl)c2)C(=O)N4)n1` [Compound 108], for which the IC50 was in the range of 50 to 250 nM.

With `COc1ncc(-c2n[nH]c3cc4c(cc23)CN(C)CC(=O)N4)cn1` [Compound 109], the concentration for half-maximal inhibition (IC50) was greater than 1000 nM.

In the case of `O=C1Nc2cc3[nH]nc(-c4ccnnc4)c3cc2CN1CCc1ccc(F)cc1` [Compound 110], the IC50 is less than 50 nM.

Regarding `C[C@H](c1cccc(Cl)c1)N1Cc2cc3c(-c4ccnnc4)n[nH]c3cc2NC1=O` [Compound 111], the IC50 is less than 50 nM.

As to `COc1ncc(-c2n[nH]c3cc4c(cc23)CN(CCCN)C(=O)N4)cn1` [Compound 112], the IC50 was less than 50 nM.

With `COc1ncc(-c2n[nH]c3cc4c(cc23)CN(CCN)C(=O)N4)cn1` [Compound 113], the half-inhibitory concentration (IC50) lay within 50 to 250 nM.

For `O=C1Nc2cc3[nH]nc(-c4ccnnc4)c3cc2CN1Cc1ccc(F)cc1F` [Compound 114], the 50% inhibitory concentration (IC50) was less than 50 nM.

As for `C[C@H](c1ccc(Cl)cc1)N1Cc2cc3c(-c4ccnnc4)n[nH]c3cc2NC1=O` [Compound 115], the IC50 is less than 50 nM.

`COc1cccc(F)c1CN1CCC(N2Cc3cc4c(-c5ccnnc5)n[nH]c4cc3NC2=O)CC1` [Compound 116]: the IC50 was in the range of 50 to 250 nM.

For `O=C1Nc2cc3[nH]nc(-c4ccnnc4)c3cc2CN1[C@H](CO)c1cccc(Cl)c1` [Compound 117], the IC50 is less than 50 nM.

With `COc1ncc(-c2n[nH]c3cc4c(cc23)CN([C@H](CO)c2cccc(Cl)c2)C(=O)N4)cn1` [Compound 118], the IC50 is less than 50 nM.

In turn, `COc1ncc(-c2n[nH]c3cc4c(cc23)CN(Cc2cccc(C(F)(F)F)c2)C(=O)N4)cn1` [Compound 119] registered a concentration for half-maximal inhibition (IC50) of less than 50 nM.

The compound `O=C1Nc2cc3[nH]nc(-c4ccnnc4)c3cc2CN1[C@@H]1CCCN(Cc2ccccc2)C1` [Compound 120] gave an IC50 of less than 50 nM.

On to `O=C1Nc2cc3[nH]nc(-c4ccnnc4)c3cc2CN1[C@@H]1CCCN(Cc2ccccc2F)C1` [Compound 121], for which the 50% inhibitory concentration (IC50) was less than 50 nM.

Compound `O=C1Nc2cc3[nH]nc(-c4ccnnc4)c3cc2CN1[C@@H]1CCCN(Cc2c(F)cccc2F)C1` [Compound 122] came in with an IC50 of less than 50 nM.

With `O=C1Nc2cc3[nH]nc(-c4cncnc4)c3cc2CN1Cc1cccc(Cl)c1` [Compound 123], the IC50 is less than 50 nM.

As for `O=C1Nc2cc3[nH]nc(-c4ccnnc4)c3cc2CN1Cc1cccc(C(F)(F)F)c1` [Compound 124], the half-maximal inhibitory concentration (IC50) was less than 50 nM.

As to `COc1ncc(-c2n[nH]c3cc4c(cc23)CN(Cc2cccc(C#N)c2)C(=O)N4)cn1` [Compound 125], the half-maximal inhibitory concentration (IC50) is less than 50 nM.

Compound `COc1cccc(F)c1CN1CCC[C@@H](N2Cc3cc4c(-c5ccnnc5)n[nH]c4cc3NC2=O)C1` [Compound 126] came in with an IC50 of less than 50 nM.

As to `O=C1Nc2cc3[nH]nc(-c4ccnnc4)c3cc2CN1Cc1cc(F)cc(F)c1` [Compound 127], the IC50 was less than 50 nM.

Take `N#Cc1cccc(CN2Cc3cc4c(-c5ccnnc5)n[nH]c4cc3NC2=O)c1` [Compound 128]: the IC50 is less than 50 nM.

For the compound `COc1ncc(-c2n[nH]c3cc4[nH]c(=O)c(C(C)c5cccc(Cl)c5)cc4cc23)cn1` (stereo not drawn) [Compound 129], the IC50 was 50 to 250 nM.

Consider `COc1ncc(-c2n[nH]c3cc4c(cc23)CCN(Cc2ccc(F)cc2)C(=O)N4)cn1` [Compound 130], for which the IC50 is 50 to 250 nM.

`Cc1ccc(CN2CCC[C@@H](N3Cc4cc5c(-c6ccnc(C)c6)n[nH]c5cc4NC3=O)C2)cn1` [Compound 131]: the concentration for half-maximal inhibition (IC50) was in the range of 50 to 250 nM.

For the compound `Cc1cc(-c2n[nH]c3cc4c(cc23)CN([C@@H]2CCCN(Cc3ccc(F)cn3)C2)C(=O)N4)ccn1` [Compound 132], the IC50 was less than 50 nM.

`Cc1cc(-c2n[nH]c3cc4c(cc23)CN([C@@H]2CCCN(Cc3cnn(C)c3)C2)C(=O)N4)ccn1` [Compound 133]: the IC50 is less than 50 nM.

`Cc1cc(-c2n[nH]c3cc4c(cc23)CN([C@@H]2CCCN(Cc3ccc(F)c(Cl)c3)C2)C(=O)N4)ccn1` [Compound 134] displayed a half-inhibitory concentration (IC50) of less than 50 nM.

Compound `Cc1cc(-c2n[nH]c3cc4c(cc23)CN([C@@H]2CCCN(CC3CCOCC3)C2)C(=O)N4)ccn1` [Compound 135] returned an IC50 of 50 to 250 nM.

The compound `Cc1cc(-c2n[nH]c3cc4c(cc23)CN([C@@H]2CCCN(CCC(C)(C)C)C2)C(=O)N4)ccn1` [Compound 136] returned a half-inhibitory concentration (IC50) of 50 to 250 nM.

As for `Cc1cc(-c2n[nH]c3cc4c(cc23)CN([C@@H]2CCCN(CC3CCC3)C2)C(=O)N4)ccn1` [Compound 137], the half-maximal inhibitory concentration (IC50) is 50 to 250 nM.

The compound `Cc1cc(-c2n[nH]c3cc4c(cc23)CN([C@@H]2CCCN(CC3CCCC3)C2)C(=O)N4)ccn1` [Compound 138] gave a half-maximal inhibitory concentration (IC50) of 50 to 250 nM.

In the case of `Cc1cc(-c2n[nH]c3cc4c(cc23)CN([C@@H]2CCCN(Cc3cc(C)no3)C2)C(=O)N4)ccn1` [Compound 139], the concentration for half-maximal inhibition (IC50) is less than 50 nM.

On to `Cc1cc(-c2n[nH]c3cc4c(cc23)CN([C@@H]2CCCN(Cc3csc(C)n3)C2)C(=O)N4)ccn1` [Compound 140], for which the IC50 was less than 50 nM.

On to `Cc1cc(-c2n[nH]c3cc4c(cc23)CN([C@@H]2CCCN(CC3CCCCC3)C2)C(=O)N4)ccn1` [Compound 141], for which the IC50 fell in the range of 50 to 250 nM.

On to `Cc1cc(-c2n[nH]c3cc4c(cc23)CN([C@@H]2CCCN(CC3CC5CCC3C5)C2)C(=O)N4)ccn1` (stereo partly drawn) [Compound 142], for which the IC50 was less than 50 nM.

`Cc1cc(-c2n[nH]c3cc4c(cc23)CN([C@@H]2CCCN(Cc3c(F)cccc3F)C2)C(=O)N4)ccn1` [Compound 143] displayed an IC50 of less than 50 nM.

Turning to `COc1cccc(F)c1CN1CCC[C@@H](N2Cc3cc4c(-c5ccnc(C)c5)n[nH]c4cc3NC2=O)C1` [Compound 144], the IC50 is less than 50 nM.

`Cc1cc(-c2n[nH]c3cc4c(cc23)CN([C@@H]2CCCN(CCc3ccccc3)C2)C(=O)N4)ccn1` [Compound 145] came in with an IC50 of less than 50 nM.

The compound `Cc1cc(-c2n[nH]c3cc4c(cc23)CN([C@@H]2CCN(Cc3ccccc3)C2)C(=O)N4)ccn1` [Compound 146] had an IC50 of less than 50 nM.

The compound `Cc1cc(-c2n[nH]c3cc4c(cc23)CN([C@@H]2CCN(Cc3c(F)cccc3F)C2)C(=O)N4)ccn1` [Compound 147] showed a 50% inhibitory concentration (IC50) of 50 to 250 nM.

Take `[2H]C([2H])(c1ccccc1)N1CCC[C@@H](N2Cc3cc4c(-c5ccnc(C)c5)n[nH]c4cc3NC2=O)C1` [Compound 148]: the half-inhibitory concentration (IC50) is less than 50 nM.

With `Cc1cc(-c2n[nH]c3cc4c(cc23)CN(CCNCc2ccccc2)C(=O)N4)ccn1` [Compound 149], the 50% inhibitory concentration (IC50) was less than 50 nM.

`COc1ncccc1CN1CCC[C@@H](N2Cc3cc4c(-c5ccnc(C)c5)n[nH]c4cc3NC2=O)C1` [Compound 150] came in with an IC50 of less than 50 nM.

For the compound `Cc1cc(-c2n[nH]c3cc4c(cc23)CN([C@@H]2CCCN(Cc3ccc(F)cc3)C2)C(=O)N4)ccn1` [Compound 151], the IC50 was less than 50 nM.

Turning to `Cc1cc(-c2n[nH]c3cc4c(cc23)CN([C@@H]2CCN(CCc3ccccc3)C2)C(=O)N4)ccn1` [Compound 153], the half-inhibitory concentration (IC50) was less than 50 nM.

As to `Cc1cc(-c2n[nH]c3cc4c(cc23)CN([C@@H]2CCCN(C(C)c3ccccc3)C2)C(=O)N4)ccn1` (stereo partly drawn) [Compound 154], the half-inhibitory concentration (IC50) was less than 50 nM.

`Cc1cc(-c2n[nH]c3cc4c(cc23)CN([C@@H]2CCCN(CCC3CC3)C2)C(=O)N4)ccn1` [Compound 155] yielded an IC50 of less than 50 nM.

In the case of `Cc1cc(-c2n[nH]c3cc4c(cc23)CN([C@@H]2CCCN(Cc3cccc(Cl)c3)C2)C(=O)N4)ccn1` [Compound 156], the half-maximal inhibitory concentration (IC50) is less than 50 nM.

Compound `Cc1cc(-c2n[nH]c3cc4c(cc23)CN(C2CCN(CCc3ccccc3)CC2)C(=O)N4)ccn1` [Compound 157] gave an IC50 of 50 to 250 nM.

In turn, `Cc1cc(-c2n[nH]c3cc4c(cc23)CN([C@@H]2CCCN(Cc3ccccc3Cl)C2)C(=O)N4)ccn1` [Compound 158] yielded an IC50 of less than 50 nM.

With `Cc1cc(-c2n[nH]c3cc4c(cc23)CN([C@@H]2CCCN(Cc3ccc(Cl)cc3)C2)C(=O)N4)ccn1` [Compound 159], the IC50 is less than 50 nM.

`Cc1cc(-c2n[nH]c3cc4[nH]c(=O)c(C(C)C5CCCCC5)cc4cc23)ccn1` (stereo not drawn) [Compound 160] gave an IC50 of 50 to 250 nM.

Compound `Cc1cc(-c2n[nH]c3cc4c(cc23)CN([C@@H]2CCCN(Cc3cccnc3C(F)(F)F)C2)C(=O)N4)ccn1` [Compound 161] returned a half-maximal inhibitory concentration (IC50) of less than 50 nM.

`COc1cccc(F)c1CN1CC[C@@H](N2Cc3cc4c(-c5ccnc(C)c5)n[nH]c4cc3NC2=O)C1` [Compound 162] had a concentration for half-maximal inhibition (IC50) of less than 50 nM.

The compound `Cc1cc(-c2n[nH]c3cc4c(cc23)CN([C@@H]2CCCN(Cc3cc(F)cc(F)c3)C2)C(=O)N4)ccn1` [Compound 163] registered an IC50 of less than 50 nM.

As to `Cc1cc(-c2n[nH]c3cc4c(cc23)CN([C@@H]2CCCN(CCc3cccc(Cl)c3)C2)C(=O)N4)ccn1` [Compound 164], the 50% inhibitory concentration (IC50) is less than 50 nM.

Regarding `[2H]c1c([2H])c([2H])c(C([2H])([2H])N2CCC[C@@H](N3Cc4cc5c(-c6ccnc(C)c6)n[nH]c5cc4NC3=O)C2)c([2H])c1[2H]` [Compound 165], the IC50 is less than 50 nM.

`Cc1cc(-c2n[nH]c3cc4c(cc23)CN([C@@H]2CCCN(Cc3cncnc3)C2)C(=O)N4)ccn1` [Compound 166] came in with an IC50 of less than 50 nM.

As for `Cc1cc(-c2n[nH]c3cc4c(cc23)CN([C@@H]2CCCN(CCc3ccc(F)cc3)C2)C(=O)N4)ccn1` [Compound 167], the IC50 lay in the range of 50 to 250 nM.

`Cc1cc(-c2n[nH]c3cc4c(cc23)CN([C@@H]2CCCN(Cc3ncccc3C)C2)C(=O)N4)ccn1` [Compound 168] returned a half-maximal inhibitory concentration (IC50) of less than 50 nM.

`Cc1cc(-c2n[nH]c3cc4c(cc23)CN([C@@H]2CCCN(CCC(C)C)C2)C(=O)N4)ccn1` [Compound 169] had an IC50 of less than 50 nM.

Turning to `Cc1cc(-c2n[nH]c3cc4c(cc23)CN([C@@H]2CCCN(Cc3cccnc3C)C2)C(=O)N4)ccn1` [Compound 170], the concentration for half-maximal inhibition (IC50) is less than 50 nM.

Turning to `Cc1cc(-c2n[nH]c3cc4c(cc23)CN([C@@H]2CCCN(Cc3ccccn3)C2)C(=O)N4)ccn1` [Compound 171], the IC50 is 50 to 250 nM.
